16 compounds from US7491794B2, “Macrocyclic compounds as inhibitors of viral replication” (Intermune, Inc., priority 2003, dated 2009) can be followed below.

As a reminder, the IC50 is the concentration needed to halve the response being measured. Broadly, the EC50 is the midpoint of the concentration-response curve.

In one assay the target is T1, NS3-NS4A protease (Hepatitis C virus genotype 1a, UniProt P27958).
T1 construct: Recombinant E. coli or Baculovirus full-length NS3 was diluted to 3.33 μM with assay buffer; made in house; host or cells: E. coli or baculovirus (BV) system
The assay is described as follows: NS3-NS4A protease assay (NS3 inhibition assay, RETS1 substrate), Section B. The assay is classed as biochemical. Particulars: read-out: NS3-NS4A IC50. The procedure, abridged:
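Kinetic fluorescence read (335 nm excitation, 495 nm emission, 30 min) of RETS1 cleavage by NS3/NS4A-2 complex, 2 nM E. coli or 3 nM baculovirus NS3, after 10 min room-temperature compound pre-incubation. Four-parameter-fit IC50s converted to Ki by Cheng–Prusoff, Ki=IC50/(1+[S]/Km).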

Assay [1] concerns HCV sub-genomic replicon, GS4.3. The assay is described as follows: Quantitation by ELISA of NPTII in the HCV sub-genomic replicon, GS4.3, Section B. The settings on record: Hepatitis C virus, read-out: Replicon EC50. The assay is classed as cell-based. The procedure, abridged:
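NPTII marker protein in lysates was quantified by ELISA read at 450 nm after 72 h inhibitor exposure (3-fold series, final DMSO 1%, G418-free medium) of HuH-7 cells stably harbouring the subgenomic HCV replicon. Values relative to DMSO-treated controls; 4-parameter curves gave EC50.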
For orientation: ELISA stands for enzyme-linked immunosorbent assay.

Where two headings read alike, the source gives them in different places.

T1 sequence (P27958 1027-1657): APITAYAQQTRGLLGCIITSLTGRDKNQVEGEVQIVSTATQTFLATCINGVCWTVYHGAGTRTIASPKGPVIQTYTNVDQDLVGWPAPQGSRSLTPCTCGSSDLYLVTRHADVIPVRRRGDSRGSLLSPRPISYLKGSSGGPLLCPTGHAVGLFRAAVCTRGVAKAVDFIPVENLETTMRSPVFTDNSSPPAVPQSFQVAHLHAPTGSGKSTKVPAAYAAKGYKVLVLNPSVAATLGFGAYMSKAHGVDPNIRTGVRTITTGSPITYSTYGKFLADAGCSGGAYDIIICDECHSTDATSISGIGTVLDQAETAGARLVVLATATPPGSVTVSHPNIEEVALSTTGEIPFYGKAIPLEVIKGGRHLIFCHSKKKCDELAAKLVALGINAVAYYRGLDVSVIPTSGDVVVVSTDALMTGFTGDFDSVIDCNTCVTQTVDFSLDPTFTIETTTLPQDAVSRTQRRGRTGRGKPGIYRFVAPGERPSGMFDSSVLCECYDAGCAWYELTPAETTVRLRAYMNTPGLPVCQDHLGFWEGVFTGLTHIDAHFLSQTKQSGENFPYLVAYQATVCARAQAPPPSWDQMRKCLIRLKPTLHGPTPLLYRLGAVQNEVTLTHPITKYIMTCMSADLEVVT

`CC(C)(C)OC(=O)N[C@H]1CCCCC/C=C\[C@@H]2C[C@@]2(C(=O)O)NC(=O)[C@@H]2C[C@@H](OC(=O)N3CCc4ccccc43)CN2C1=O` [AR00291875, (1S,4R,6S,14S,18R)-14-tert-Butoxycarbonylamino-18-(2,3-dihydro-indole-1-carbonyloxy)-2,15-dioxo-3,16-diaza-tricyclo[14.3.0.0^4,6]nonadec-7-ene-4-carboxylic acid]: at NS3-NS4A protease, the 50% inhibitory concentration (IC50) is < 1000 nM. Further, in assay [1] (GS4.3 cells, 72 h incubation), the EC50 is < 10000 nM.
For `CN1CCN(c2ccc3c(c2)CN(C(=O)O[C@@H]2C[C@H]4C(=O)N[C@]5(C(=O)NS(=O)(=O)C6CC6)C[C@H]5/C=C\CCCCC[C@H](NC(=O)OC(C)(C)C)C(=O)N4C2)C3)CC1` [AR00340495, (1S,4R,6S,14S,18R)-5-(4-Methyl-piperazin-1-yl)-1,3-dihydro-isoindole-2-carboxylic acid 14-tert-butoxycarbonylamino-4-cyclopropanesulfonylaminocarbonyl-2,15-dioxo-3,16-diaza-tricyclo[14.3.0.0^4,6]nonadec-7-en-18-yl ester], in that order: < 100 nM and < 100 nM.
For `CC(C)(C)OC(=O)N[C@H]1CCCCC/C=C\[C@@H]2C[C@@]2(C(=O)NS(=O)(=O)c2ccc(C(=O)O)cc2)NC(=O)[C@@H]2C[C@@H](OC(=O)N3Cc4cccc(F)c4C3)CN2C1=O` [AR00365438, (1S,4R,6S,14S,18R)-4-Fluoro-1,3-dihydro-isoindole-2-carboxylic acid 14-tert-butoxycarbonylamino-4-(4-carboxy-benzenesulfonylaminocarbonyl)-2,15-dioxo-3,16-diaza-tricyclo[14.3.0.0^4,6]nonadec-7-en-18-yl ester], in that order: < 100 nM and < 100 nM.
For `CC(C)(C)OC(=O)N[C@H]1CCCCC/C=C\[C@@H]2C[C@@]2(C(=O)O)NC(=O)[C@@H]2C[C@@H](OC(=O)N3Cc4ccc(Cl)cc4C3)CN2C1=O` [AR00315998, (1S,4R,6S,14S,18R)-14-tert-Butoxycarbonylamino-18-(5-chloro-1,3-dihydro-isoindole-2-carbonyloxy)-2,15-dioxo-3,16-diaza-tricyclo[14.3.0.0^4,6]nonadec-7-ene-4-carboxylic acid], in that order: < 1000 nM and < 10000 nM.
Turning to `CC(C)(C)OC(=O)N[C@H]1CCCCCC=C[C@@H]2C[C@@]2(C(=O)NS(=O)(=O)C2CC2)NC(=O)[C@@H]2C[C@@H](OC(=O)N3Cc4ccccc4C(C)(C)C3)CN2C1=O` [AR00312025, (1S,4R,6S,14S,18R)-4,4-Dimethyl-3,4-dihydro-1H-isoquinoline-2-carboxylic acid 14-tert-butoxycarbonylamino-4-cyclopropanesulfonylaminocarbonyl-2,15-dioxo-3,16-diaza-tricyclo[14.3.0.0^4,6]nonadec-7-en-18-yl ester], on NS3-NS4A protease, the IC50 is < 100 nM. Besides, the EC50 in assay [1] (GS4.3 cells, 72 h incubation) was < 100 nM.
`CCCCS(=O)(=O)NC(=O)[C@@]12C[C@H]1/C=C\CCCCC[C@H](NC(=O)OC(C)(C)C)C(=O)N1C[C@H](OC(=O)N3CCc4ccccc4C3)C[C@H]1C(=O)N2` [AR00261409, (1S,4R,6S,14S,18R)-3,4-Dihydro-1H-isoquinoline-2-carboxylic acid 4-(butane-1-sulfonylaminocarbonyl)-14-tert-butoxycarbonylamino-2,15-dioxo-3,16-diaza-tricyclo[14.3.0.0^4,6]nonadec-7-en-18-yl ester]: the concentration for half-maximal inhibition (IC50) on NS3-NS4A protease is < 100 nM. Besides, the concentration giving a half-maximal response (EC50) in assay [1] (72 h) was < 10000 nM.
In the case of `CC(OC(=O)N[C@H]1CCCCC/C=C\[C@@H]2C[C@@]2(C(=O)NS(=O)(=O)C2CC2)NC(=O)[C@@H]2C[C@@H](OC(=O)N3CCc4ccccc4C3)CN2C1=O)C(F)(F)F` (stereo partly drawn) [AR00320581, (1S,4R,6S,14S,18R)-3,4-Dihydro-1H-isoquinoline-2-carboxylic acid 4-cyclopropanesulfonylaminocarbonyl-2,15-dioxo-14-(2,2,2-trifluoro-1-methyl-ethoxycarbonylamino)-3,16-diaza-tricyclo[14.3.0.0^4,6]nonadec-7-en-18-yl ester], the 50% inhibitory concentration (IC50) at NS3-NS4A protease was < 100 nM. For the same compound, the EC50 in assay [1] (GS4.3 cells, 72 h incubation) was < 100 nM.
With `CC(C)(C)OC(=O)N[C@H]1CCCCC/C=C\[C@@H]2C[C@@]2(C(=O)NS(=O)(=O)C2CC2)NC(=O)[C@@H]2C[C@@H](OC(=O)N3Cc4ccc(OCCOC(=O)N5CCOCC5)cc4C3)CN2C1=O` [AR00345032, (1S,4R,6S,14S,18R)-5-[2-(Morpholine-4-carbonyloxy)-ethoxy]-1,3-dihydro-isoindole-2-carboxylic acid 14-tert-butoxycarbonylamino-4-cyclopropanesulfonylaminocarbonyl-2,15-dioxo-3,16-diaza-tricyclo[14.3.0.0^4,6]nonadec-7-en-18-yl ester], on NS3-NS4A protease, the IC50 is < 100 nM. In addition, the EC50 in assay [1] (GS4.3 cells, 72 h incubation) is < 100 nM.
As for `O=C(NC1CCOC1)N[C@H]1CCCCC/C=C\[C@@H]2C[C@@]2(C(=O)NS(=O)(=O)C2CC2)NC(=O)[C@@H]2C[C@@H](OC(=O)N3CCc4ccccc4C3)CN2C1=O` (stereo partly drawn) [AR00320222, (1S,4R,6S,14S,18R)-3,4-Dihydro-1H-isoquinoline-2-carboxylic acid 4-cyclopropanesulfonylaminocarbonyl-2,15-dioxo-14-[3-(tetrahydro-furan-3-yl)-ureido]-3,16-diaza-tricyclo[14.3.0.0^4,6]nonadec-7-en-18-yl ester], at NS3-NS4A protease, the half-maximal inhibitory concentration (IC50) was < 100 nM. Further, the concentration giving a half-maximal response (EC50) in assay [1] (GS4.3 cells, 72 h incubation) is < 10000 nM.
For `CC(C)(C)OC(=O)N[C@H]1CCCCC/C=C\[C@@H]2C[C@@]2(C(=O)O)NC(=O)[C@@H]2C[C@@H](OC(=O)N3CCc4ccc(N)cc4C3)CN2C1=O` [AR00301749, (1S,4R,6S,14S,18R)-18-(7-Amino-3,4-dihydro-1H-isoquinoline-2-carbonyloxy)-14-tert-butoxycarbonylamino-2,15-dioxo-3,16-diaza— tricyclo[14.3.0.0^4,6]nonadec-7-ene-4-carboxylic acid], in that order: < 1000 nM and < 10000 nM.
For `O=C(N[C@H]1CCCCC/C=C\[C@@H]2C[C@@]2(C(=O)O)NC(=O)[C@@H]2C[C@@H](OC(=O)N3Cc4ccccc4C3)CN2C1=O)OC1CCOCC1` [AR00320077, (1S,4R,6S,14S,18R)-18-(1,3-Dihydro-isoindole-2-carbonyloxy)-2,15-dioxo-14-(tetrahydro-pyran-4-yloxycarbonylamino)-3,16-diaza-tricyclo[14.3.0.0^4,6]nonadec-7-ene-4-carboxylic acid], in that order: < 1000 nM and < 10000 nM.
For `CC(C)(C)NC(=O)N[C@H]1CCCCC/C=C\[C@@H]2C[C@@]2(C(=O)NS(=O)(=O)C2CC2)NC(=O)[C@@H]2C[C@@H](OC(=O)N3Cc4cccc(F)c4C3)CN2C1=O` [AR00338066, (1S,4R,6S,14S,18R)-4-Fluoro-1,3-dihydro-isoindole-2-carboxylic acid 14-(3-tert-butyl-ureido)-4-cyclopropanesulfonylaminocarbonyl-2,15-dioxo-3,16-diaza-tricyclo[14.3.0.0^4,6]nonadec-7-en-18-yl ester], in that order: < 100 nM and < 100 nM.
Take `CC(C)(C)OC(=O)N[C@H]1CCCCC/C=C\[C@@H]2C[C@@]2(C(=O)O)NC(=O)[C@@H]2C[C@@H](OC(=O)N3CCc4c(F)cccc4C3)CN2C1=O` [AR00294384, (1S,4R,6S,14S,18R)-14-tert-Butoxycarbonylamino-18-(5-fluoro-3,4-dihydro-1H-isoquinoline-2-carbonyloxy)-2,15-dioxo-3,16-diaza-tricyclo[14.3.0.0^4,6]nonadec-7-ene-4-carboxylic acid]: the IC50 on NS3-NS4A protease is < 1000 nM. Besides, the EC50 in assay [1] (GS4.3 cells, 72 h incubation) is < 10000 nM.
The corresponding values for `CC(C)(C)OC(=O)N[C@H]1CCCCCCCC2C[C@@]2(C(=O)NS(=O)(=O)C2CC2)NC(=O)[C@@H]2C[C@@H](OC(=O)N3Cc4ccccc4C3)CN2C1=O` (stereo in doubt) [AR00333833, (1S,4R,6S,14S,18R)-1,3-Dihydro-isoindole-2-carboxylic acid 14-tert-butoxycarbonylamino-4-cyclopropanesulfonylaminocarbonyl-2,15-dioxo-3,16-diaza-tricyclo[14.3.0.0^4,6]nonadec-18-yl ester] are < 100 nM and < 100 nM.
The corresponding values for `O=C(NC1CCCC1)N[C@H]1CCCCC/C=C\[C@@H]2C[C@@]2(C(=O)O)NC(=O)[C@@H]2C[C@@H](OC(=O)N3Cc4ccccc4C3)CN2C1=O` [AR00304079, (1S,4R,6S,14S,18R)-14-(3-Cyclopentyl-ureido)-18-(1,3-dihydro-isoindole-2-carbonyloxy)-2,15-dioxo-3,16-diaza-tricyclo[14.3.0.0^4,6]nonadec-7-ene-4-carboxylic acid] are < 100 nM and < 1000 nM.
As for `O=C(N[C@H]1CCCCC/C=C\[C@@H]2C[C@@]2(C(=O)O)NC(=O)[C@@H]2C[C@@H](OC(=O)N3CCc4ccccc4C3)CN2C1=O)O[C@H]1CCOC1` [AR00304126, (1S,4R,6S,14S,18R)-18-(3,4-Dihydro-1H-isoquinoline-2-carbonyloxy)-2,15-dioxo-14-(tetrahydro-furan-3S-yloxycarbonylamino)-3,16-diaza-tricyclo[14.3.0.0^4,6]nonadec-7-ene-4-carboxylic acid], the IC50 on NS3-NS4A protease was < 1000 nM. Further, the EC50 in assay [1] (GS4.3 cells, 72 h incubation) was < 10000 nM.
